Test results taken from patent US6589941B1 (priority 1995, dated 2003).

Tests used:
[1] = test system: Saccharomyces cerevisiae MP1; assay: Recombination / mutation experiments with yeast; assay type: cell-based; conditions: for anti-recombinogenic effects in Saccharomyces cerevisiae MP1: FIGS. 11 and 12
[2] = test system: SV40-DNA amplification in SV40 transformed embryonic CO631 hamster cells; assay: SV40-DNA gene amplification system in SV40-transformed hamster cells; assay type: cell-based, Chinese Hamster; conditions: for effect on SV40 gene amplification: model substance given alone, FIGS. 1 to 3
Description: To investigate the amplification phenomena, a hamster cell strain is used which contains a virus (simian virus 40) integrated in the genome. It is known for this cell strain that an addition of genotoxic substances, but also various “non-genotoxic” carcinogens and tumor inducers, leads to amplification of SV40-DNA in the hamster genome. The method is based on the fact that marked SV40-DNA with hamster cell-DNA containing SV40-DNA in an amplified number, serving as a probe, is hybridized. The quantity of bound probe gives an insight into the degree of amplification of the integrated virus-DNA.
In order to determine the degree of amplification, the albumin-gene-DNA is measured simultaneously with the SV40-DNA. The albumin-gene, as opposed to SV40-DNA, is not amplified in the cell. Accordingly the value of the relative SV40-DNA content results from the quotient of the signal of the DNA probe hybridized with SV40-DNA to the signal of the DNA probe hybridized with albumin gene from the same SV40 transformed embryonic CO631 hamster cells.
The effect of the above named model substances alone or in combination with a carcinogen is tested in the gene amplification system.

[3] = test system: tumor cell strain F46-WT of the mouse
Method: The formation of resistance is based on the amplification of the MDR gene. This is indicated with the aid of the Northern Blotting Technique, a method for indicating RNA molecules, i.e., the transcription of a gene, using the MDR gene as a probe (FIG. 10).
The tumor cell strain F4-6-WT of the mouse (WT=wild type=sensitive to cytostatic treatment=no amplification of the MDR gene) is treated over several weeks with staged increases in concentration of adriamycin. […] The formation of resistance is based on the amplification of the MDR gene. This is indicated with the aid of the Northern Technique, a method for indicating RNA molecules, i.e., the transcription of a gene, using the MDR gene as a probe (FIG. 15). […] The levels of β-actin MRNA are likewise analyzed as comparison. β-actin is used as an internal control for the RNA quantity.
In parallel experiments, adriamycin is administered with 1 μg/ml of a respective 5′ substituted nucleoside.

MDR gene in F46-WT cells = assay: Northern Blot analysis of RNA with the MDR gene as probe; assay type: cell-based, mouse; conditions: BVDU+adriamycin treatment, FIG. 10
Description: Expression of the MDR genes in the tumor cell strain F4-6WT of the mouse.

[4] = test system: human tumor cell strain K562-WT; conditions: FIG. 8

Nc1nc(=O)n([C@H]2C[C@H](O)[C@@H](CO)O2)cc1I [5-iodo-2′-deoxycytidine]
anti-recombinogenic effects in Saccharomyces cerevisiae MP1 [1]: anti-recombinogenic effects

O=c1[nH]c(=O)n([C@H]2C[C@H](O)[C@@H](CO)O2)cc1I [5-iodo-2′-deoxyuridine]
anti-recombinogenic effects in Saccharomyces cerevisiae MP1 [1]: anti-recombinogenic effects

O=c1[nH]c(=O)n([C@H]2C[C@H](O)[C@@H](CO)S2)cc1/C=C/Br [(E)-5(2-bromovinyl-2′-deoxy-4′-thiouridine]
anti-recombinogenic effects in Saccharomyces cerevisiae MP1 [1]: anti-recombinogenic effects

O=c1[nH]c(=O)n([C@@H]2O[C@H](CO)[C@@H](O)[C@@H]2O)cc1/C=C/Br [(E)-5-(2-bromovinyl)-1-β-D-arabinofuranosyl-uracil]
anti-recombinogenic effects in Saccharomyces cerevisiae MP1 [1]: anti-recombinogenic effects

O=c1[nH]c(=O)n([C@H]2C[C@H](O)[C@@H](CO)O2)cc1/C=C/Br [BVDU, (E)-5-(2-bromovinyl-)2′-deoxyuridine]
effect on spontaneous degree of amplification ([2]; BVDU alone, repeat experiment, FIG. 6): slightly to lessen the spontaneous degree of amplification
effect on AMP-induced gene amplification ([2]; with S9-mix, lower dose range than without S9-mix, FIG. 7): lowering of AMP-induced gene amplification
concentration at which inhibition of AMP-induced gene amplification starts ([2]; without S9-mix, FIG. 5): about 0.05 μg/ml
concentration leading to total inhibition of the AMP-induced gene amplification ([2]; without S9-mix, dose dependent, FIG. 5): 5 µg/mL
anti-recombinogenic effects in Saccharomyces cerevisiae MP1 [1]: anti-recombinogenic effects
effect on mutation in yeast ([1]; with and without S9-mix, FIG. 4): co-mutagenic
effect on recombination in yeast ([1]; with and without liver microsomes (S9-mix), more visible and at lower concentration with S9-mix, FIG. 4): anti-recombinogenic
formation of resistance to adriamycin ([3]; 0.5 or 1 μg/ml BVDU given together with adriamycin, F46-WT, 6 to 8 weeks, FIG. 9): prevents the formation of resistance to adriamycin
concentration from which BVDU acts in a toxic manner ([3]; mouse cells, FIG. 9): about 8 μg/ml
amplification of the MDR gene compared with adriamycin treatment alone (MDR gene in F46-WT cells): considerably weaker amplification of the MDR gene
formation of resistance to adriamycin ([4]; 0.5 or 1 μg/ml BVDU given together with adriamycin, K562-WT, 6 to 8 weeks): prevents the formation of resistance to adriamycin
concentration from which BVDU acts in a toxic manner ([4]; human tumor cells): about 10 μg/ml

C1CN1c1nc(N2CC2)nc(N2CC2)n1 [TEM, Triethylenmelamin]
effect on SV40 gene amplification [2]: increase the SV40 gene amplification

CCCCCCCCCCCCCC(=O)O[C@@H]1[C@@H](C)[C@@]2(O)[C@@H](C=C(CO)C[C@]3(O)C(=O)C(C)=C[C@@H]23)[C@H]2C(C)(C)[C@]12OC(C)=O [TPA, 12-0-tetradecanoyl-phorbol-13-acetate]
effect on SV40 gene amplification [2]: increase the SV40 gene amplification

CC(N)=O [acetamide]
effect on SV40 gene amplification [2]: increase the SV40 gene amplification

CC(C)=O [acetone]
effect on SV40 gene amplification [2]: no effect

COc1cccc2c1C(=O)c1c(O)c3c(c(O)c1C2=O)C[C@@](O)(C(=O)CO)C[C@@H]3O[C@H]1C[C@H](N)[C@H](O)[C@H](C)O1 [adriamycin]
sensitivity of cells after long term treatment with staged increase in concentration ([3]; 20 ng/ml adriamycin, F46-WT, FIGS. 9, 13, 14): totally insensitive
sensitivity of cells after long term treatment with staged increase in concentration ([4]; 20 ng/ml adriamycin, K562-WT): totally insensitive
toxic effect on non-resistant cells ([4]; 20 ng/ml adriamycin, treatment time 4 days, K562-WT): severely toxic effect

O=c1ccc2ccccc2o1 [coumarin]
effect on SV40 gene amplification [2]: increase the SV40 gene amplification

CN(C)C=O [dimethylfornamide, dimethylformamide]
effect on SV40 gene amplification [2]: no effect

C=C(C)[C@@]12O[C@@]3(c4ccccc4)O[C@@H]1[C@@H]1[C@@H]4O[C@]4(CO)[C@@H](O)[C@]4(O)C(=O)C(C)=C[C@H]4[C@@]1(O3)[C@H](C)[C@H]2OC(=O)/C=C/C=C/c1ccccc1 [mezerein]
effect on SV40 gene amplification [2]: increase the SV40 gene amplification

C[C@]12CC[C@H]3[C@@H](CCC4=CC(=O)CC[C@@]43C)[C@@H]1CC[C@@H]2O [testosterone]
effect on the amplifying effect of methotrexate (MTX) ([2]; with S9-mix, FIG. 3): reduces the amplifying effect of methotrexate (MTX)
effect on the amplifying effect of amino-6-mercaptopurine (AMP) ([2]; without S9-mix, FIG. 3): increases the amplifying effect of amino-6-mercaptopurine (AMP)

CC(=N)S [thioacetamide]
effect on SV40 gene amplification [2]: increase the SV40 gene amplification
